These results are taken from patent US20240174621A1, “METHYLQUINAZOLINONE DERIVATIVES” (Hoffmann-La Roche Inc., priority 2019, published 2024).

The test system of series [1] is P-ERK in A375 cells expressing V600E mutated BRAF. The experiment in a line: cells. The class given is cell-based. To be noted: Homo sapiens, A-375, 1 h, read-out: pERK IC50 (nM) A375. An excerpt: DMEM no-phenol red medium supplemented with L-glutamine was purchased from (Thermo Fisher Scientific). Fetal bovine serum (FBS) was purchased from VWR. Advanced ERK phospho-T202/Y204 kit—10,000 tests was purchased from Cisbio cat #64AERPEH. A375 and HCT116 cells were originally obtained from ATCC and banked by the Roche repository.
(§1) A375 is a cellular cancer model expressing V600E mutated BRAF and HCT116 a cellular cancer model expressing WT BRAF. […] ERK 1,2 phosphorylation (terminal member of the phosphorylation cascade of the MAPK pathway) is hereafter reported as main readout for the activation status of the MAPK pathway. Prior to the assay, A375 and HCT116 cell lines are maintained in DMEM no-phenol red medium supplemented with 10% fetal bovine serum (FBS). […] Briefly, 8000 cells/well in 12 μl media/well are plated in the 384-well plate and left overnight in the incubator (at 37° C. with 5% CO2-humidified atmosphere), the following day the plate is treated in duplicate with test compounds, dabrafenib and PLX8394 (the latter two as controls) at the following final drug concentrations: 10 μM-3 μM-1 μM all wells are subjected to DMSO normalization and drug incubation occurs for 1 hour. Then, 4 μl of a 4× lysis buffer supplied with the kit are added to the wells, the plate is then centrifuged for 30 second (300 rcf) and incubated on a plate shaker for 1 h at RT.
At the end of the incubation 4 μL/well of advanced P-ERK antibody solution (prepared according to manufacturer's instruction) followed by 4 μL/well of criptate P-ERK antibody solution (prepared according to manufacturer's instruction) (Cisbio cat #64AERPEH) are added to test wells. […]
(§2) The obtained fluorescence values are processed according to the formula Ratio=[…]*10000 then the average of the ratio on the blank is subtracted to all values.
Mean of the normalized points are fitted with sigmoidal curve and IC50 determined.

Series [2] relates to P-ERK in HCT116 cells expressing WT BRAF. In kind it is cell-based.
Source text: DMEM no-phenol red medium supplemented with L-glutamine was purchased from (Thermo Fisher Scientific). Fetal bovine serum (FBS) was purchased from VWR. Advanced ERK phospho-T202/Y204 kit—10,000 tests was purchased from Cisbio cat #64AERPEH. A375 and HCT116 cells were originally obtained from ATCC and banked by the Roche repository. 384-well microplates were purchased from Greiner Bio-One, 384-well, (With Lid, HiBase, Low volume cat 784-080).
as §1
At the end of the incubation 4 μL/well of advanced P-ERK antibody solution (prepared according to manufacturer's instruction) followed by 4 μL/well of criptate P-ERK antibody solution (prepared according to manufacturer's instruction) (Cisbio cat #64AERPEH) are added to test wells.
In order to allow proper data normalization control wells non drug treated reported in the following table are always included in each plate (according to manufacturer's instruction):
The plate is then centrifuged at 300 rcf for 30 second, sealed to prevent evaporation and incubated overnight in the dark at room temperature.
The plate is then analyzed and fluorescence emission value collected through a Pherastast FSX (BMG Labtech) apparatus at […].
as §2
Data are normalized in the case of HCT116 cells (BRAF activation,) considering the average of the ratio (blank subtracted) derived by DMSO only treated cells as 0% and by considering the average of the ratio (blank subtracted) derived by dabrafenib treated cells at the concentration which provides the highest signal as 100%. Individual points are fitted with either sigmoidal or bell shape curves, and the percentage of activation compared to maximum dabrafenib-mediated activation is determined. The EC50 is the concentration at which activation equal to 50% of the maximum achieved by dabrafenib is obtained.
The Percentage of Maximum paradox inducing effect from dabrafenib is determined by evaluating the percentage at which the test compound induce its maximum P-ERK signal as percentage of the highest signal produced by dabrafenib within the dose range tested.

The conditions of series [3]: literature; cited from earlier work.
A short description of series [4]: CSF Kp,uu measurement for brain penetration, minipig. The class given is in vivo. The conditions noted are these: Multiple oral dosing @ 300 mg/kg/day (2-week DRF). As for the experimental part:
(§3) The CSF Kp,uu is the ratio of the concentration in cerebrospinal fluid (CSF): unbound plasma exposure and Kp,uu values≥1 indicate good brain penetration. For compound Example 1, single oral dose studies in mouse and rat, sequential plasma and CSF concentrations (up to 24 h post dose) were measured by LC-MS/MS to calculate the CSF Kp,uu. For multiple oral dose studies in rat and minipig the plasma and CSF concentrations approximating Tmax (3 h post last dose) were measured by LC-MS/MS and used to calculate the CSF Kp,uu.

In series [5] the test system is A375 BRAF V600E cancer cells constituvely expressing luciferase. Briefly: Intracranial implanted A375-Luc. The class given is in vivo. To be noted: daily oral 1, 5 and 20 mg/kg for 2 weeks from day 7; immunocompromised mice. How it is done:
A375 BRAF V600E cancer cells constituvely expressing luciferase were injected intracranially in immunocompromised mice. Treatment with compound Example 1 was initiated at day 7 from the intracranial injection and continued for 2 weeks. The different groups were subject to daily oral administration of 1 mg/kg, 5 mg/kg and 20 mg/kg of Example 1 respectively.

A short description of series [6]: CSF Kp,uu measurement for brain penetration, mouse. The class given is in vivo. The conditions noted are these: Single oral dose 10 mg/kg. How it is done:
as §3

Series [7] in a line: BCS (biopharmaceutics classification system). In kind it is physicochemical.
Series [8] in a line: CSF Kp,uu measurement for brain penetration, rat. The class given is in vivo. How it is done: as §3
A further series relates to P-gp. Briefly: P-gp apical efflux ratio, LLC-PK1 cell line transfected with MDR1. In kind it is in vitro ADME.
The next series can be described thus: Plasma protein binding. In kind it is in vitro ADME. To be noted: mouse, rat, minipig, monkey, human.
Setting [9] is: read-out: p-ERK EC50 (nM) conc. (nM) at which the compound induces P-ERK activation of 50% of that induced by dabrafenib (Positive control paradox inducer) HCT-116; HCT-116 cells; not applicable if activation does not reach 50% of dabrafenib maximum.
The mark [10] stands for this setting: HCT-116 cells; maximum P-ERK signal as percentage of highest dabrafenib signal.

Where two headings read alike, the source gives them in different places.

On to `CCCS(=O)(=O)Nc1ccc(F)c(Oc2ccc3ncn(C)c(=O)c3c2)c1C#N` [AR-25], for which, in series [1], the IC50 (as a rule, the point on the concentration scale where inhibition reaches its midpoint) was determined as 1.1 nM. In series [2] (setting [9]), the concentration giving a half-maximal response (EC50) (as a rule, the concentration at which the effect is half-maximal) turned out to be 9.6 nM.

Take `CN(C)S(=O)(=O)Nc1ccc(Cl)c(Oc2ccc3ncn(C)c(=O)c3c2)c1C#N` [AR-30]: the IC50 in series [1] amounted to 406 nM. The “Percentage of Maximum paradox inducing effect from dabrafenib” value (“Percentage” for short) in series [2] (setting [10]) worked out at 59%. Moreover, the EC50 in [2] (setting [9]) was over 1000 nM.

As to `Cn1cnc2ccc(Oc3c(Cl)ccc(NS(=O)(=O)N4CCCC4)c3C#N)cc2c1=O` [AR-31], the IC50 in [1] worked out at 311 nM. Moreover, the “Percentage” value in series [2] (setting [10]) was 51.2%. In addition, the EC50 in [2] (HCT-116 cells; not applicable if activation does not reach 50% of dabrafenib maximum; read-out: p-ERK EC50 (nM) conc. (nM) at which the compound induces P-ERK activation of 50% of that induced by dabrafenib (Positive control paradox inducer) HCT-116) was over 1000 nM.

On to `CC(C)(C)c1nc(-c2cccc(NS(=O)(=O)c3c(F)cccc3F)c2F)c(-c2ccnc(N)n2)s1` [Dabrafenib], for which the Brain permeability entry in [3] was “very poor brain permerability”.

`COC(=O)N[C@@H](C)CNc1nccc(-c2cn(C(C)C)nc2-c2cc(Cl)cc(NS(C)(=O)=O)c2F)n1` [Encorafenib]: in series [3], the Brain permeability result is listed as “very poor brain permerability”.

Consider `Cn1cnc2ccc(Oc3c(F)ccc(NS(=O)(=O)N4CC[C@@H](F)C4)c3C#N)cc2c1=O` [Example 1, (3R)-N-[2-cyano-4-fluoro-3-(3-methyl-4-oxo-quinazolin-6-yl)oxy-phenyl]-3-fluoro-pyrrolidine-1-sulfonamide], for which the “Minipig CSF Kp,uu, Class” value in series [4] is “High”. Also, the Kp uu at 3 h in series [4] (minipig, CSF / unbound plasma, 3 h post last dose) is at least 1; in [8] (rat, CSF / unbound plasma, Multiple oral dosing @ 300 mg/kg/day (2-week DRF), 3 h post last dose) it was at least 1. For the same molecule, the “Antitumor activity, intracranial A375-Luc” value in [5] is “dose dependent antitumor activity”. Further, the “Mouse CSF Kp,uu, Class” value in [6] is on record as “High”. The Kp uu is at least 1 in [6] (mouse, CSF / unbound plasma) and at least 1 in series [8] (rat, CSF / unbound plasma, Single oral dose 20 mg/kg). In series [7], the “BCS (biopharmaceutics classific. system) Class” value amounted to 2. For the same molecule, the “Rat CSF Kp,uu, Class” value in [8] (Multiple oral dosing @ 300 mg/kg/day (2-week DRF)) and in series [8] (Single oral dose 20 mg/kg) was “High” throughout. In addition, the “Temporal relationship of plasma and CSF (distribution into CSF)” value in series [8] (single dose rat PK study, up to 24 h post dose) was “(PK) study and indicated fast and extensive distribution into CSF”. The “P-gp Apical Efflux ratio, Class” value in the series on P-gp (LLC-PK1 transfected with MDR1) is given as “Low”. In addition, the efflux ratio (commonly a quotient of directional permeabilities that is used to spot active efflux) with P-gp (human, LLC-PK1 transfected with MDR1, presence/absence of P-gp inhibitor) was found to be 1.5. Besides, in the series “Plasma protein binding”, the “Plasma protein binding, Class” value is reported as “Very high”. In addition, the fraction unbound (in general, the share of the substance not bound to proteins or other matrix) in “Plasma protein binding” (plasma) was at most 0.01.

As to `Cn1cnc2ccc(Oc3c(F)ccc(NS(=O)(=O)N4CC[C@H](F)C4)c3C#N)cc2c1=O` [Example 2, (3S)-N-[2-cyano-4-fluoro-3-(3-methyl-4-oxo-quinazolin-6-yl)oxy-phenyl]-3-fluoro-pyrrolidine-1-sulfonamide], the “Percentage” value in [2] (setting [10]) turned out to be 46.2%.

`CCCS(=O)(=O)Nc1ccc(F)c(C(=O)c2c[nH]c3ncc(-c4ccc(Cl)cc4)cc23)c1F` [Vemurafenib]: the Brain permeability result in series [3] is reported as “very poor brain permerability”.
